PubChem BioAssay (NCI)
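96-well plates; 48 h exposure; 5 concentrations. Endpoints by linear interpolation between flanking doses. Not reached: highest tested concentration assigned. At the TGI there is no net growth.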 Where a SMILES comes first, the peptide text is derived from it. [ ]: non-standard residue; d: D form. The star is where a group is joined. ξ: configuration not given here. dThr(3ξ) = CC(O)[C@@H](N)C(=O)O; dNMeL = CN[C@H](CC(C)C)C(=O)O; OBn = c1ccc(CO*)cc1; ξLac = CC(O)C(=O)O

What was measured:
Assay in all cases: NCI-60 cell line screen, 48 h
SK-MEL-5 melanoma = tested on: SK-MEL-5 melanoma
SF-268 CNS = tested on: SF-268 CNS
SK-MEL-2 melanoma = tested on: SK-MEL-2 melanoma
OVCAR-8 ovarian = tested on: OVCAR-8 ovarian
MOLT-4 leukemia = tested on: MOLT-4 leukemia
A498 renal = tested on: A498 renal
CAKI-1 renal = tested on: CAKI-1 renal
NCI-H23 lung = tested on: NCI-H23 lung
OVCAR-5 ovarian = tested on: OVCAR-5 ovarian
UACC-257 melanoma = tested on: UACC-257 melanoma
M14 melanoma = tested on: M14 melanoma
HOP-62 NSCLC = tested on: HOP-62 NSCLC
SF-539 CNS = tested on: SF-539 CNS
TK-10 renal = tested on: TK-10 renal
K-562 leukemia = tested on: K-562 leukemia
MDA-MB-231 breast = tested on: MDA-MB-231 breast
NCI-H226 lung = tested on: NCI-H226 lung
HS 578T breast = tested on: HS 578T breast
HOP-92 NSCLC = tested on: HOP-92 NSCLC
MDA-MB-435 = tested on: MDA-MB-435

Structure (SMILES)	TGI (SK-MEL-5 melanoma) [µM]	TGI (SF-268 CNS) [µM]	TGI (SK-MEL-2 melanoma) [µM]	TGI (OVCAR-8 ovarian) [µM]	TGI (MOLT-4 leukemia) [µM]	TGI (A498 renal) [µM]	TGI (CAKI-1 renal) [µM]	TGI (NCI-H23 lung) [µM]	TGI (OVCAR-5 ovarian) [µM]	TGI (UACC-257 melanoma) [µM]	TGI (M14 melanoma) [µM]	TGI (HOP-62 NSCLC) [µM]	TGI (SF-539 CNS) [µM]	TGI (TK-10 renal) [µM]	TGI (K-562 leukemia) [µM]	TGI (MDA-MB-231 breast) [µM]	TGI (NCI-H226 lung) [µM]	TGI (HS 578T breast) [µM]	TGI (HOP-92 NSCLC) [µM]	TGI (MDA-MB-435) [µM]
Cc1ccc(S(=O)(=O)OC2=C/C(=N\c3onc(C)c3C)c3ccccc3C2=O)cc1	38.7	77.5	26	36.8	24.2	> 100	37.8	73.8	42.1	34.4	> 100	54.8	79	92.7	18.9	41.6	> 100	> 100	33.2	31.8
CCc1ccc(Nc2cc(=O)[nH]c(SCc3ccccc3)n2)cc1	> 100	> 100	> 100	> 100	> 100	> 100	> 100	> 100	> 100	> 100	> 100	> 100	> 100	> 100	> 100	> 100	> 100	> 100	> 100	> 100
COC(=O)[C@@H]1C[C@H]([Se]c2ccccc2)CN1S(=O)(=O)c1ccc(C)cc1	> 100	> 100	> 100	> 100	> 100	> 100	> 100	> 100	> 100	> 100	> 100	> 100	> 100	> 100	> 100	> 100	> 100	> 100	> 100	> 100
NS(=O)(=O)c1ccc(NNc2c3ccccc3nc3ccccc23)cc1	17.2	17.7	18.1	16.6	19.2	53.9	18.9	22.1	17.5	18	15.9	22.4	17.2	26.4	19.9	25.9	18.8	23.8	23.4	17
O=S(=O)(N=S(c1ccc(Cl)cc1)c1ccc(Cl)cc1)c1ccccc1	> 100	> 100	> 100	> 100	> 100	> 100	> 100	> 100	> 100	> 100	> 100	> 100	> 100	> 100	> 100	> 100	> 100	> 100	> 100	> 100
CC(=O)CCNc1ccc(-c2cc(-c3ccc(N(C)C)cc3)nc3ccc4ccccc4c23)cc1	> 100	> 100	> 100	> 100	> 100	> 100	> 100	> 100	> 100	> 100	> 88.8	> 100	> 100	> 100	> 100	> 100	> 78.9	> 100	> 100	> 100
COC(=O)c1ccc(N=NN(C)COc2ccc(C#N)cc2)cc1	> 100	> 100	> 100	> 100	> 100	> 100	> 100	> 100	> 100	> 100	> 100	> 100	> 100	> 100	> 100	> 100	> 100	> 100	> 100	> 100
Cn1c(=O)c2c(no[n+]2[O-])n(C)c1=O	> 100	55.7	> 100	37	> 100	48	35.2	47.9	> 100	84.6	> 100	47.3	> 100	60.7	> 100	48.1	59.3	64.9	44.1	38.3
COc1c2c(cc3c1C(O)N1CC[C@]34[C@H]3O[C@H]3[C@H](OC)C[C@@H]14)OCO2 (stereo not given in full)	> 100	> 100	83.8	> 100	> 100	> 100	> 100	> 100	> 100	> 100	> 100	> 100	> 100	> 100	> 100	> 100	> 100	> 100	> 100	> 100
CC(=O)OC(C)[C@@H](NC(=O)[C@@H](CC(C)C)N(C)C(=O)[C@@H]1CCCN1C(=O)C(C)O)C(=O)OCc1ccccc1 (stereo not given in full) (H-[ξLac]P[dNMeL][dThr(3ξ)](Ac)-OBn)	> 100	> 100	> 100	> 100	> 100	> 100	> 100	> 100	> 100	> 100	> 100	> 100	> 100	> 100	> 100	> 100	> 100	> 100	> 100	> 100
CCCCCC(O)[C@H]1C(=O)C[C@@H](O[Si](C)(C)C(C)(C)C)[C@@H]1/C=C/CCOCc1ccccc1 (stereo not given in full)	37.9	33.2	31.2	28.4	> 29.7	39.9	29.9	33.3	36.6	26.4	34.5	34.1	29.5	28.5	> 59.4	61.8	27.5	26.4	28.1	22.4
CC(C)[Si](OC1=C(C(=O)Nc2ccccc2Cl)CCCCC1)(C(C)C)C(C)C	> 100	> 100	> 100	> 100	> 100	> 100	> 100	> 100	> 100	> 100	> 100	> 100	> 100	> 100	> 100	> 100	> 100	> 100	> 100	> 100
NC1CC(=O)c2c(Cl)sc(Cl)c21 (stereo not given)	22.9	67.4	25	20	9.37	31.1	6.1	25	42.9	7.27	35.4	34	8.85	6.26	75	6.39	30.9	70.4	2.91	15.5
CN(CCCNC(=O)c1cn(C)c2c1ccc1cc(Cl)c(Cl)cc12)CCCNC(=O)c1cn(C)c2c1ccc1cc(Cl)c(Cl)cc12	28.7	34	31.5	31.2	30.3	28	27.1	31.4	31.2	52.4	27.5	> 57.7	32.1	37.4	26.2	29.8	47.9	27.6	33.4	26.4
CCCCCCCC/C=C\CCCCCCC(F)C(=O)O (stereo not given)	> 12.5	> 12.5	> 12.5	> 12.5	> 12.5	> 12.5	> 12.5	> 12.5	> 12.5	> 12.5	> 12.5	> 12.5	> 12.5	> 12.5	> 12.5	> 12.5	> 12.5	> 12.5	> 12.5	> 12.5
